In PubChem BioAssay AID1963842 (Molecular Pharmacology Branch, DTP, NCI, 2024):

Test system: 677734-321-R-J1-PDC complex spheroid viability
Experiment: Anticancer human tumor 677734-321-R-J1-PDC patient-derived soft tissue sarcoma cell line growth inhibition [POLQ]
Details: for IC50: curve of first compound; for viability, T/C: stronger effect = lower value
In short: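 Three-cell-type spheroids modelling solid tumor plus stroma served as the readout system; POL inhibitors were tested individually and in combination, concentration ranges set by clinical Cmax where known.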

[1] = second compound 0.0316 µM, first compound 0.00316 µM
[2] = second compound 0.0316 µM, first compound 0.01 µM
[3] = second compound 0.0316 µM, first compound 0.0316 µM
[4] = second compound 0.0316 µM, first compound 0.1 µM
[5] = second compound 0.0316 µM, first compound 0.316 µM
[6] = second compound 0.0316 µM, first compound 1 µM
[7] = second compound 0.1 µM, first compound 0.00316 µM
[8] = second compound 0.1 µM, first compound 0.01 µM
[9] = second compound 0.1 µM, first compound 0.0316 µM
[10] = second compound 0.1 µM, first compound 0.1 µM
[11] = second compound 0.1 µM, first compound 0.316 µM
[12] = second compound 0.1 µM, first compound 1 µM
[13] = second compound 0.316 µM, first compound 0.00316 µM
[14] = second compound 0.316 µM, first compound 0.01 µM
[15] = second compound 0.316 µM, first compound 0.0316 µM
[16] = second compound 0.316 µM, first compound 0.1 µM
[17] = second compound 0.316 µM, first compound 0.316 µM
[18] = second compound 0.316 µM, first compound 1 µM
[19] = second compound 1 µM, first compound 0.00316 µM
[20] = second compound 1 µM, first compound 0.01 µM
[21] = second compound 1 µM, first compound 0.0316 µM
[22] = second compound 1 µM, first compound 0.1 µM
[23] = second compound 1 µM, first compound 0.316 µM
[24] = second compound 1 µM, first compound 1 µM
[25] = second compound 3.16 µM, first compound 0.00316 µM
[26] = second compound 3.16 µM, first compound 0.01 µM
[27] = second compound 3.16 µM, first compound 0.0316 µM
[28] = second compound 3.16 µM, first compound 0.1 µM
[29] = second compound 3.16 µM, first compound 0.316 µM
[30] = second compound 3.16 µM, first compound 1 µM
[31] = second compound 10 µM, first compound 0.00316 µM
[32] = second compound 10 µM, first compound 0.01 µM
[33] = second compound 10 µM, first compound 0.0316 µM
[34] = second compound 10 µM, first compound 0.1 µM
[35] = second compound 10 µM, first compound 0.316 µM
[36] = second compound 10 µM, first compound 1 µM
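Note: spheroids exposed to compounds for one week.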
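Throughout, for viability, T/C: 100% = vehicle DMSO treated spheroids.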

In the case of `C=CCn1c(=O)c2cnc(Nc3ccc(N4CCN(C)CC4)cc3)nc2n1-c1cccc(C(C)(C)O)n1` + COC1C(OC(N)=O)C(O)C(Oc2ccc3c(O)c(NC(=O)c4ccc(O)c(CC=C(C)C)c4)c(=O)oc3c2C)OC1(C)C, the IC50 (second compound 0.0316 µM) is reported as over 1000 nM, the IC50 (second compound 0.1 µM) is reported as over 1000 nM and the IC50 (second compound 0.316 µM) is reported as over 1000 nM. The IC50 (second compound 1 µM) was over 1000 nM, the IC50 (second compound 3.16 µM) was over 1000 nM and the IC50 (second compound 10 µM) was over 1000 nM. The viability, T/C [1] was 110%, the viability, T/C [2] was 93.9% and the viability, T/C [3] was 101%. For the same compound, the viability, T/C [4] was 102%, the viability, T/C [5] was 104% and the viability, T/C [6] was 61.6%. For the same compound, the viability, T/C [7] was 105%, the viability, T/C [8] was 106% and the viability, T/C [9] was 101%. It also gave a viability, T/C [10] of 99.3%, a viability, T/C [11] of 104% and a viability, T/C [12] of 72.4%. For the same compound, the viability, T/C [13] was 119%, the viability, T/C [14] was 105% and the viability, T/C [15] was 103%. It also gave a viability, T/C [16] of 111%, a viability, T/C [17] of 111% and a viability, T/C [18] of 70.2%. The viability, T/C [19] was 108%, the viability, T/C [20] was 102% and the viability, T/C [21] was 104%. The viability, T/C [22] was 112%, the viability, T/C [23] was 107% and the viability, T/C [24] was 66.3%. For the same compound, the viability, T/C [25] was 101%, the viability, T/C [26] was 103% and the viability, T/C [27] was 104%. For the same compound, the viability, T/C [28] was 115%, the viability, T/C [29] was 106% and the viability, T/C [30] was 69.8%. For the same compound, the viability, T/C [31] was 109%, the viability, T/C [32] was 110% and the viability, T/C [33] was 102%. For the same compound, the viability, T/C [34] was 106%, the viability, T/C [35] was 105% and the viability, T/C [36] was 76%.
`CC1COCCN1c1cc(C2(S(C)(=N)=O)CC2)nc(-c2ccnc3[nH]ccc23)n1` (stereo unspecified) + Cc1cccc(N(C)C(=O)C2C(O)CCN2c2nc(C)cc(C(F)(F)F)c2C#N)c1 gave an IC50 (second compound 0.0316 µM) of 4030 nM, an IC50 (second compound 0.1 µM) of 3860 nM and an IC50 (second compound 0.316 µM) of 3910 nM. It also gave an IC50 (second compound 1 µM) of 3790 nM, an IC50 (second compound 3.16 µM) of 3100 nM and an IC50 (second compound 10 µM) of 3030 nM. For the same compound, the viability, T/C [3] was 106%, the viability, T/C [4] was 105% and the viability, T/C [5] was 104%. For the same compound, the viability, T/C [6] was 91%, the viability, T/C (second compound 0.0316 µM, first compound 3.16 µM) was 57% and the viability, T/C (second compound 0.0316 µM, first compound 10 µM) was 24.2%. For the same compound, the viability, T/C [9] was 106%, the viability, T/C [10] was 110% and the viability, T/C [11] was 96.5%. It also gave a viability, T/C [12] of 92.9%, a viability, T/C (second compound 0.1 µM, first compound 3.16 µM) of 53.6% and a viability, T/C (second compound 0.1 µM, first compound 10 µM) of 28.6%. The viability, T/C [15] was 117%, the viability, T/C [16] was 108% and the viability, T/C [17] was 100%. The viability, T/C [18] was 90.4%, the viability, T/C (second compound 0.316 µM, first compound 3.16 µM) was 54.3% and the viability, T/C (second compound 0.316 µM, first compound 10 µM) was 22%. The viability, T/C [21] was 109%, the viability, T/C [22] was 102% and the viability, T/C [23] was 98.5%. For the same compound, the viability, T/C [24] was 98.3%, the viability, T/C (second compound 1 µM, first compound 3.16 µM) was 54.5% and the viability, T/C (second compound 1 µM, first compound 10 µM) was 25.4%. For the same compound, the viability, T/C [27] was 104%, the viability, T/C [28] was 103% and the viability, T/C [29] was 99.7%. It also gave a viability, T/C [30] of 90.6%, a viability, T/C (second compound 3.16 µM, first compound 3.16 µM) of 49.2% and a viability, T/C (second compound 3.16 µM, first compound 10 µM) of 37.8%. For the same compound, the viability, T/C [33] was 102%, the viability, T/C [34] was 96.5% and the viability, T/C [35] was 93.1%. It also gave a viability, T/C [36] of 87%, a viability, T/C (second compound 10 µM, first compound 3.16 µM) of 48.3% and a viability, T/C (second compound 10 µM, first compound 10 µM) of 26%.
Compound `CC[C@@]1(O)C(=O)OCc2c1cc1n(c2=O)Cc2cc3c(CN(C)C)c(O)ccc3nc2-1` + Nc1ccc(C#CCN(C(=O)Cc2ncc(C(F)(F)F)cc2C(F)(F)F)c2ccc(F)cc2)nn1 has an IC50 (second compound 0.0316 µM) of 19.9 nM, an IC50 (second compound 0.1 µM) of 21.2 nM and an IC50 (second compound 0.316 µM) of 22.1 nM. For the same compound, the IC50 (second compound 1 µM) was 22.6 nM, the IC50 (second compound 3.16 µM) was 22.4 nM and the IC50 (second compound 10 µM) was 22.1 nM. For the same compound, the viability, T/C (second compound 0.0316 µM, first compound 0.000316 µM) was 108%, the viability, T/C (second compound 0.0316 µM, first compound 0.001 µM) was 115% and the viability, T/C [1] was 117%. It also gave a viability, T/C [2] of 86.2%, a viability, T/C [3] of 25.9% and a viability, T/C [4] of 15.3%. For the same compound, the viability, T/C (second compound 0.1 µM, first compound 0.000316 µM) was 99.3%, the viability, T/C (second compound 0.1 µM, first compound 0.001 µM) was 97.7% and the viability, T/C [7] was 99.2%. For the same compound, the viability, T/C [8] was 87.3%, the viability, T/C [9] was 30.3% and the viability, T/C [10] was 13%. It also gave a viability, T/C (second compound 0.316 µM, first compound 0.000316 µM) of 116%, a viability, T/C (second compound 0.316 µM, first compound 0.001 µM) of 105% and a viability, T/C [13] of 90.4%. For the same compound, the viability, T/C [14] was 98.2%, the viability, T/C [15] was 28.1% and the viability, T/C [16] was 14.9%. It also gave a viability, T/C (second compound 1 µM, first compound 0.000316 µM) of 110%, a viability, T/C (second compound 1 µM, first compound 0.001 µM) of 99.9% and a viability, T/C [19] of 103%. It also gave a viability, T/C [20] of 89.9%, a viability, T/C [21] of 33.6% and a viability, T/C [22] of 12.8%. It also gave a viability, T/C (second compound 3.16 µM, first compound 0.000316 µM) of 102%, a viability, T/C (second compound 3.16 µM, first compound 0.001 µM) of 102% and a viability, T/C [25] of 104%. For the same compound, the viability, T/C [26] was 102%, the viability, T/C [27] was 27.7% and the viability, T/C [28] was 17.6%. For the same compound, the viability, T/C (second compound 10 µM, first compound 0.000316 µM) was 135%, the viability, T/C (second compound 10 µM, first compound 0.001 µM) was 106% and the viability, T/C [31] was 92.5%. It also gave a viability, T/C [32] of 83.7%, a viability, T/C [33] of 29.4% and a viability, T/C [34] of 13.8%.
